Measured values published in ChEMBL document CHEMBL4376887, “Rose Bengal-Amphiphilic Peptide Conjugate for Enhanced Photodynamic Therapy of Malignant Melanoma” (J Med Chem, 2020).
pIC50: −log10 of the molar value. Calls of active or inactive are those of the source. No cut-off for these calls is given here.

What was measured:
B16-F10-luc2 [1] = assay: Photo-activated cytotoxicity against mouse B16-F10-luc2 cells assessed as cell viability at 1 uM preincubated for 3 hrs followed by compound washout and subsequent 22.8 J cm'-2 light irradiation for 60 secs measured after 21 hrs by MTT assay relative to control; assay type: functional; settings: B16-F10-luc2, light or radiation study, read-out: Activity
[2] = Induction of ROS generation in ethanol assessed as reduction in DPBF absorbance at 410 nm at 1 uM preincubated for 10 mins followed by 342 J cm'-2 light irradiation for 15 mins and measured at 5 mins interval for 15 mins by spectrometric method; assay type: functional
[3] = Induction of singlet oxygen generation in ethanol at 1 uM preincubated for 10 mins followed by 342 J cm'-2 light irradiation for 15 mins and measured at 5 mins interval for 15 mins by spectrometric method; assay type: functional
HeLa [4] = assay: Photo-activated cytotoxicity against human HeLa cells assessed as reduction in cell viability preincubated for 4 hrs followed by compound washout and subsequent 3.3 mW cm'-2 light irradiation for 24 mins measured after 48 hrs by MTT assay; assay type: functional, cell-based; settings: light or radiation study
[5] = Cytotoxicity against mouse B16-F10-luc2 cells assessed as cell viability at 1 uM incubated for 24 hrs under dark condition by MTT assay relative to control; assay type: cell-based; settings: read-out: Activity
B16-F10-luc2 [6] = assay: Photo-activated cytotoxicity against mouse B16-F10-luc2 cells assessed as reduction in cell viability preincubated for 3 hrs followed by compound washout and subsequent 22.8 J cm'-2 light irradiation for 60 secs measured after 21 hrs by MTT assay; assay type: functional, cell-based; settings: B16-F10-luc2, light or radiation study
B16-F10-luc2 [7] = assay: (§1) Induction of apoptosis in mouse B16-F10-luc2 cells assessed as decrease in viable cells at 1 uM preincubated for 3 hrs followed by compound washout and subsequent 22.8 J cm'-2 light irradiation for 60 secs measured after 21 hrs by Alexa Fluor 488 Annexin V/Dead Cell staining based flow cytometry; assay type: functional
B16-F10-luc2 [8] = assay: as §1, with “increase” for “decrease”, “late apoptotic” for “viable”; assay type: functional
B16-F10-luc2 [9] = assay: Induction of apoptosis in mouse B16-F10-luc2 cells assessed as increase in necrotic cells at 1 uM preincubated for 3 hrs followed by compound washout and subsequent 22.8 J cm'-2 light irradiation for 60 secs measured after 21 hrs by Alexa Fluor 488 Annexin V/Dead Cell staining based flow cytometry; assay type: functional
B16-F10-luc2 [10] = assay: Induction of apoptosis in mouse B16-F10-luc2 cells assessed as decrease in viable cells at 1 uM measured after 24 hrs by Alexa Fluor 488 Annexin V/Dead Cell staining based flow cytometry; assay type: functional
B16-F10-luc2 [11] = assay: Induction of apoptosis in mouse B16-F10-luc2 cells assessed as increase in late apoptotic cells at 1 uM measured after 24 hrs by Alexa Fluor 488 Annexin V/Dead Cell staining based flow cytometry; assay type: functional
B16-F10-luc2 [12] = assay: Induction of apoptosis in mouse B16-F10-luc2 cells assessed as increase in necrotic cells at 1 uM measured after 24 hrs by Alexa Fluor 488 Annexin V/Dead Cell staining based flow cytometry; assay type: functional
B16-F10-luc2 [13] = assay: Induction of reactive oxygen species generation in mouse B16-F10-luc2 cells at 10 uM preincubated for 3 hrs followed by compound washout prior to […] addition for 1 hr and subsequent 22.8 J cm'-2 light irradiation for 60 secs post media washout and measured immediately by fluorescence assay; assay type: functional, cell-based
B16-F10-luc2 [14] = assay: Antitumor activity against mouse B16-F10-luc2 cells implanted in SCID mouse assessed as tumor growth at 100 uM, iv administered on day 1, 2, 7, and 9 measured for 12 days relative to control; assay type: functional
B16-F10-luc2 [15] = assay: Antitumor activity against mouse B16-F10-luc2 cells implanted in SCID mouse assessed as tumor growth at 100 uM, iv administered 30 mins prior to 68.4 J cm'-2 light irradiation for 3 mins on day 1, 2, 7, and 9 measured for 12 days relative to control; assay type: functional
B16-F10-luc2 [16] = assay: Antitumor activity against mouse B16-F10-luc2 cells implanted in SCID mouse assessed as reduction in tumor growth at 100 uM, iv administered 30 mins prior to 68.4 J cm'-2 light irradiation for 3 mins on day 1, 2, 7, and 9 measured on day 13; assay type: functional, organism-based
[17] = Toxicity in mouse B16-F10-luc2 cells implanted SCID mouse assessed as effect on body weight at 100 uM, iv administered 30 mins prior to 68.4 J cm'-2 light irradiation for 3 mins on day 1, 2, 7, and 9; assay type: organism-based; settings: in vivo, 0.05 h
[18] = Acute toxicity in mouse B16-F10-luc2 cells implanted SCID mouse at 100 uM, iv administered 30 mins prior to 68.4 J cm'-2 light irradiation for 3 mins on day 1, 2, 7, and 9; assay type: organism-based; settings: in vivo, 0.05 h
MCF7 [19] = assay: Photo-activated cytotoxicity against human MCF7 cells assessed as reduction in cell viability up to 1 uM preincubated for 3 hrs followed by compound washout and subsequent 22.8 J cm'-2 light irradiation for 60 secs measured after 21 hrs by MTT assay; assay type: functional, cell-based
PANC-1 [20] = assay: Photo-activated cytotoxicity against human PANC1 cells assessed as reduction in cell viability up to 1 uM preincubated for 3 hrs followed by compound washout and subsequent 22.8 J cm'-2 light irradiation for 60 secs measured after 21 hrs by MTT assay; assay type: functional, cell-based
MCF7 [21] = assay: Cytotoxicity against human MCF7 cells assessed as reduction in cell viability up to 1 uM incubated for 24 hrs under dark condition by MTT assay; assay type: cell-based; settings: mcf7, 24 h
PANC-1 [22] = assay: Cytotoxicity against human PANC1 cells assessed as reduction in cell viability up to 1 uM incubated for 24 hrs under dark condition by MTT assay; assay type: cell-based; settings: panc-1, 24 h
HeLa [23] = assay: Photo-activated cytotoxicity against human HeLa cells assessed as reduction in cell viability preincubated for 3 hrs followed by compound washout and subsequent 22.8 J cm'-2 light irradiation for 60 secs measured after 21 hrs by MTT assay; assay type: functional, cell-based; settings: light or radiation study
[24] = Drug uptake in mouse B16-F10-luc2 cells assessed as increase in fluorescence intensity at 10 uM measured after 3 hrs by confocal laser scanning microscopic analysis relative to RB; assay type: ADME, cell-based; settings: b16-f10-luc2, 3 h
B16-F10-luc2 [25] = assay: Antitumor activity against mouse B16-F10-luc2 cells implanted in SCID mouse assessed as tumor volume at 100 uM, iv administered 30 mins prior to 68.4 J cm'-2 light irradiation for 3 mins on day 1, 2, 7, and 9 measured for 12 days relative to control; assay type: functional

O=C(O)CCCCCCCOC(=O)c1c(Cl)c(Cl)c(Cl)c(Cl)c1-c1c2cc(I)c(=O)c(I)c-2oc2c(I)c(O)c(I)cc12
viability at 1 µM (B16-F10-luc2 [1]): 62%
Activity [2]: Active
Activity [3]: Active

C=Cc1c(C)c2cc3[nH]c(cc4nc(cc5nc(cc1[nH]2)C(C)=C5CCC(=O)O)C(CCC(=O)O)=C4C)c(C)c3C=C
pIC50 (HeLa [4]): 5.79

CC(C)C[C@H](NC(=O)[C@H](CCCCN)NC(=O)[C@H](C)NC(=O)[C@H](CC(C)C)NC(=O)[C@H](CCCCN)NC(=O)[C@H](CCCCN)NC(=O)[C@H](C)NC(=O)[C@H](CC(C)C)NC(=O)[C@H](CCCCN)NC(=O)[C@H](C)NC(=O)[C@H](CC(C)C)NC(=O)[C@H](CCCCN)NC(=O)[C@H](CS)NC(=O)CCCCCCCOC(=O)c1c(Cl)c(Cl)c(Cl)c(Cl)c1-c1c2cc(I)c(=O)c(I)c-2oc2c(I)c(O)c(I)cc12)C(=O)N[C@@H](C)C(=O)N[C@@H](CCCCN)C(N)=O
viability at 1 µM (B16-F10-luc2 [1]): 6%
viability at 24 h, 1 µM [5]: 69%
pIC50 (B16-F10-luc2 [6]): 6.51
Activity (B16-F10-luc2 [7]): Active
Activity (B16-F10-luc2 [8]): Active
Activity (B16-F10-luc2 [9]): Active
Activity (B16-F10-luc2 [10]): Active
Activity (B16-F10-luc2 [11]): Active
Activity (B16-F10-luc2 [12]): Active
Activity [2]: Active
Activity [3]: Active
Activity (B16-F10-luc2 [13]): Active
Activity (B16-F10-luc2 [14]): 573%
Activity (B16-F10-luc2 [15]): 23%
Activity (B16-F10-luc2 [16]): Active
Activity [17]: Non-Toxic
Activity [18]: Non-Toxic
Activity (MCF7 [19]): Active
Activity (PANC-1 [20]): Active
Activity (MCF7 [21]): Active
Activity (PANC-1 [22]): Active
pIC50 (HeLa [23]): 6.54
Drug uptake [24]: 69%

O=C([O-])c1c(Cl)c(Cl)c(Cl)c(Cl)c1-c1c2cc(I)c(=O)c(I)c-2oc2c(I)c([O-])c(I)cc12.[Na+].[Na+] [ROSE BENGAL SODIUM]
viability at 1 µM (B16-F10-luc2 [1]): 69%
Activity [2]: Active
Activity (B16-F10-luc2 [25]): 502%
Activity (B16-F10-luc2 [16]): Active
Activity (MCF7 [21]): Active
Activity (PANC-1 [22]): Active

C=Cc1c(C)c2cc3[nH]c(cc4nc(cc5nc(cc1[nH]2)C(C)=C5CCC(=O)N[C@@H](CS)C(=O)N[C@@H](CCCCN)C(=O)N[C@@H](CC(C)C)C(=O)N[C@@H](C)C(=O)N[C@@H](CCCCN)C(=O)N[C@@H](CC(C)C)C(=O)N[C@@H](C)C(=O)N[C@@H](CCCCN)C(=O)N[C@@H](CCCCN)C(=O)N[C@@H](CC(C)C)C(=O)N[C@@H](C)C(=O)N[C@@H](CCCCN)C(=O)N[C@@H](CC(C)C)C(=O)N[C@@H](C)C(=O)N[C@@H](CCCCN)C(N)=O)C(CCC(=O)O)=C4C)c(C)c3C=C
viability at 1 µM (B16-F10-luc2 [1]): 38%
viability at 24 h, 1 µM [5]: 46%
